The assay addresses ShPyV VP1. To be noted: glycan coupled to BSA by reductive amination and immobilised on CM5 chip; multivalent (avidity); pH 7.4, 25 °C; kinetic fit.

Regarding `CC(=O)N[C@H]1[C@@H](O[C@H]2[C@@H](O)[C@@H](CO)O[C@@H](O[C@H]3[C@@H](O)[C@@H](CO)O[C@H](O[C@@H]4[C@H](O)[C@@H](O)[C@H](O[C@H]5[C@H](O)[C@@H](O)C(O)O[C@@H]5CO)O[C@@H]4CO)[C@@H]3O)[C@@H]2NC(C)=O)O[C@H](CO)[C@H](O)[C@@H]1O` (stereo partly shown) [FP, Forssman pentaose], the Kd is 3.6 nM.

The values above are taken from article doi:10.1101/2023.04.10.536218v2, “A novel and highly specific Forssman antigen-binding protein from sheep polyomavirus” (biorxiv, 2023).
